Data reported in PubChem BioAssay (NCI).
Where “and” joins values, the source holds several entries; their conditions need not be identical. Equal entries are not always repeated.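 Growth conditions: 96-well plates. Treatment: test compound, 48 hours, 5 concentrations. Analysis: linear interpolation between bracketing concentrations; unreached endpoints set to highest concentration. GI50: concentration for 50% inhibition of growth. TGI: concentration producing complete growth inhibition.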

Experiments:
Experiment in all cases: NCI anticancer screen, dose series, 48 h
[1] = system: RXF 393 renal
[2] = system: UACC-62 melanoma
[3] = system: SNB-75 CNS
[4] = system: UACC-257 melanoma
[5] = system: CCRF-CEM leukemia
[6] = system: LOX IMVI melanoma
[7] = system: IGROV1 ovarian
[8] = system: 786-0 renal
[9] = system: HCT-15 colon
[10] = system: SK-OV-3 ovarian

| Structure (SMILES) | GI50 [1] | TGI [1] | GI50 [2] | TGI [2] | GI50 [3] | TGI [3] | GI50 [4] | TGI [4] | GI50 [5] | TGI [5] | GI50 [6] | TGI [6] | GI50 [7] | TGI [7] | GI50 [8] | TGI [8] | GI50 [9] | TGI [9] | GI50 [10] | TGI [10] |
| --- | --- | --- | --- | --- | --- | --- | --- | --- | --- | --- | --- | --- | --- | --- | --- | --- | --- | --- | --- | --- |
| CCN(CC)CCCC(CCl)Nc1ccnc2cc(Cl)ccc12 (stereo not given) | 4.95 µM and 10.6 µM | 24.5 µM and > 49.1 µM | 20 µM and 6.69 µM | 38.7 µM and 34.8 µM | 26.1 µM and 29.5 µM | 59.2 µM and > 73.6 µM | 3.78 µM and 14.6 µM | 15.3 µM and 31.1 µM | 13.7 µM and 16.9 µM | 39.7 µM and 51.5 µM | 8.43 µM and 8.53 µM | 42.3 µM and 31.4 µM | 70.5 µM and 69.1 µM | > 100 µM | 14.8 µM and 18 µM | 32.8 µM and 62 µM | 24.9 µM and 23.9 µM | > 100 µM | > 100 µM | > 100 µM |
| O=C1C(=O)c2ccccc2C(O)=C1C(C1=C(O)c2ccccc2C(=O)C1=O)c1ccc(Cl)cc1 | – | 18.4 µM | – | 23.5 µM | – | 9.83 µM | – | 17 µM | – | > 46 µM | – | 7.78 µM | – | 27.2 µM | – | 11.2 µM | – | 32 µM | – | 33.5 µM |
| CC1(C)N=C(N)N=C(N)N1c1ccc(CCC(=O)Nc2ccc(S(=O)(=O)F)cc2)c(Cl)c1 | > 45.4 µM | > 100 µM | 0.287 µM | > 100 µM | 9.75 µM | > 100 µM | > 42.5 µM | > 100 µM | 0.522 µM | > 100 µM | 0.402 µM | > 100 µM | 0.0551 µM | > 86.5 µM | 0.697 µM | > 100 µM | 2.92 µM | > 100 µM | 8.56 µM | > 100 µM |
| NC(CSC(c1ccccc1)(c1ccccc1)c1ccccc1)C(=O)NCC(=O)O (stereo not given) | 2.84 µM | 19.5 µM | 7.25 µM | > 100 µM | 2.95 µM | 27.7 µM | 5.19 µM | > 100 µM | 3.68 µM | > 100 µM | 7.66 µM | > 100 µM | 10.7 µM | > 100 µM | 6.78 µM | > 100 µM | 4.89 µM | > 100 µM | 4.33 µM | 43.7 µM |
| COc1cc(NS(=O)(=O)c2ccc(C)cc2)c2nccnc2c1 | – | 64.7 µM | – | 34.6 µM | – | 78.1 µM | – | > 100 µM | – | 81.2 µM | – | > 100 µM | – | > 100 µM | – | > 100 µM | – | > 100 µM | – | > 100 µM |
| CCC[CH2][Sn]([CH2]CCC)([O]C(=O)CN)[O]C(=O)CN | 16.2 µM | 44.3 µM | 17.5 µM | 60.5 µM | 29.6 µM | > 100 µM | 50.4 µM | > 100 µM | 5.93 µM | 51.8 µM | 22.1 µM | 59.7 µM | > 100 µM | > 100 µM | 33 µM | > 100 µM | 26.9 µM | 63.6 µM | > 100 µM | > 100 µM |
| C[C@]12CCc3sc(Nc4ccc(OC(F)(F)F)cc4)nc3C1=CC[C@@H]1[C@@H]2CC[C@]2(C)C(=O)CC[C@@H]12 | 0.5 µM | 2.21 µM | 3.03 µM | 10.3 µM | 1.88 µM | 6.23 µM | 4.89 µM | 28.8 µM | 1.42 µM | > 100 µM | 1.74 µM | 3.18 µM | 3.32 µM | 10.8 µM | 1.45 µM | 3.28 µM | 1.69 µM | 4.1 µM | 3.04 µM | 10 µM |
| CCOc1cccc(/C=N/NC(=O)c2cccc(Nc3ccnc(C(F)(F)F)c3)c2)c1O | 1.66 µM | 44.6 µM | 0.551 µM | 11.7 µM | 11.2 µM | 39.2 µM | 3.09 µM | 24 µM | 0.18 µM | > 100 µM | 0.473 µM | > 26.6 µM | 0.852 µM | > 52.6 µM | 1.18 µM | > 20.7 µM | 1.1 µM | > 100 µM | 0.796 µM | 33.1 µM |
| CN(C)Cc1cc(C(F)(F)F)ccc1C(O)(c1ccccc1)c1ccccc1 | – | 25.4 µM | – | 26 µM | – | 21.8 µM | – | 24 µM | – | 28.9 µM | – | 31.8 µM | – | 30.9 µM | – | 27.7 µM | – | 28.6 µM | – | 56.5 µM |
| C=C(C)C1CC2(C)C(C)CC(O)CC2C(OC(=O)C=C(C)C)C1O (stereo not given) | – | > 100 µM | – | > 100 µM | – | 40.5 µM | – | > 100 µM | – | 84.7 µM | – | > 100 µM | – | > 100 µM | – | > 100 µM | – | > 100 µM | – | > 100 µM |
| Cc1ccc(S(=O)(=O)N=Nc2c(O)[nH]c3cc(O)c(C(=O)O)cc23)cc1 | – | > 100 µM | – | > 100 µM | – | > 100 µM | – | > 100 µM | – | > 100 µM | – | > 100 µM | – | > 100 µM | – | > 100 µM | – | > 100 µM | – | > 100 µM |
| COc1ccc2c(c1)C(=O)/C(=C/c1cccc(OCC(=O)c3ccccc3)c1)O2 | 3.26 µM | 8.01 µM | 13.4 µM | 27 µM | 10.7 µM | 22.9 µM | 18.8 µM | 33.5 µM | 0.81 µM | 2.42 µM | 2.83 µM | 9.54 µM | 3.66 µM | 13.3 µM | 4.59 µM | 17.5 µM | 2.42 µM | 6.83 µM | 15.8 µM | 29.2 µM |
| CCN(CC)CCNC(Cc1ccccc1)c1ccc(OCc2ccccc2)cc1 (stereo not given) | 3.83 µM | 18.1 µM | 1.92 µM | 3.89 µM | 4.29 µM | 18 µM | 2.13 µM | 4.85 µM | 3.19 µM | 13.7 µM | 4.19 µM | 15.9 µM | 4.43 µM | 17.1 µM | 3.61 µM | 17.9 µM | 3.36 µM | 13 µM | 10.9 µM | 23.6 µM |
| O=C1N/C(=C\[N+](=O)[O-])c2ccccc21 | – | > 100 µM | – | > 100 µM | – | 93.3 µM | – | > 100 µM | – | > 100 µM | – | > 100 µM | – | > 100 µM | – | > 100 µM | – | > 100 µM | – | > 100 µM |
| COc1ccc2c(c1)NC1=C(C(=O)OC1)C2c1cc(OC)c(OC)c(OC)c1 (stereo not given) | < 0.01 µM | 61.8 µM | < 0.01 µM | > 100 µM | < 0.01 µM | 40 µM | < 0.01 µM | > 100 µM | < 0.01 µM | > 100 µM | < 0.01 µM | > 100 µM | < 0.01 µM | > 100 µM | < 0.01 µM | > 100 µM | < 0.01 µM | > 100 µM | < 0.01 µM | – |
| NC(CCCC(N)P(=O)(O)O)P(=O)(O)O (stereo not given) | – | > 100 µM | – | > 100 µM | – | > 100 µM | – | > 100 µM | – | > 100 µM | – | > 100 µM | – | > 100 µM | – | > 100 µM | – | > 100 µM | – | > 100 µM |
| Cc1nnc(-c2ccc(C)c(-c3ccc(C(=O)Nc4cccc(C#N)c4)cc3)c2)o1 | > 25 µM | > 25 µM | > 25 µM | > 25 µM | > 25 µM | > 25 µM | > 25 µM | > 25 µM | > 25 µM | > 25 µM | > 25 µM | > 25 µM | > 25 µM | > 25 µM | > 25 µM | > 25 µM | > 25 µM | > 25 µM | > 25 µM | > 25 µM |
| C=CC(=O)N1CCC(Oc2cc3c(Nc4ccc(Cl)c(Cl)c4F)ncnc3cc2OC)CC1 | 0.596 µM and 0.81 µM | 2.76 µM and 3.87 µM | 3.25 µM and 2.15 µM | 18.7 µM and > 10 µM | 1.07 µM and 0.48 µM | 13.7 µM and 4.4 µM | 11.5 µM and 6.67 µM | 31.7 µM and > 10 µM | 2.33 µM and 3.37 µM | 55.9 µM and > 10 µM | 1.55 µM and 1.2 µM | 5.73 µM and 2.84 µM | 0.0855 µM and 0.0104 µM | 4.39 µM and 1.72 µM | 1.96 µM and 1.63 µM | 17.7 µM and > 10 µM | 2.52 µM and 2.23 µM | 15.6 µM and > 10 µM | < 0.001 µM | – |
| NCCCNCCS | – | > 100 µM | – | > 100 µM | – | > 100 µM | – | > 100 µM | > 100 µM and 21.8 µM | > 100 µM and 72.3 µM | – | > 100 µM | – | > 100 µM | > 100 µM and 49.5 µM | > 100 µM | – | > 100 µM | – | > 100 µM |
| Cc1ccc(C2=C(c3ccc(C)cc3)C3(c4ccc(C)cc4)C4C(=O)OC(=O)C4C2(c2ccc(C)cc2)S3=O)cc1 (stereo not given) | 13.9 µM | 30.4 µM | 3.57 µM | 19.6 µM | 15.3 µM | 36.8 µM | > 100 µM | > 100 µM | 25.2 µM | > 100 µM | 18.5 µM | 73.7 µM | 25.7 µM | > 100 µM | 6.91 µM | 27.7 µM | 33.5 µM | > 100 µM | 26.8 µM | 98.7 µM |
| CCN1C(=O)c2ccc3c4c(ccc(c24)C1=O)C(=O)N(CCCNCc1ccccc1OC)C3=O | 0.671 µM | 2.04 µM | 0.468 µM | 1.63 µM | 1.57 µM | 3.01 µM | 0.264 µM | 0.88 µM | 0.793 µM | 9.41 µM | 0.314 µM | 1.31 µM | 1.28 µM | 4.37 µM | 1.33 µM | 5.88 µM | 0.291 µM | 1.07 µM | 2.28 µM | 7.04 µM |
| O=C(Nc1ccc(C(F)(F)F)cc1[N+](=O)[O-])C(=O)C1NC(=S)NC1=O (stereo not given) | – | > 100 µM | – | > 100 µM | – | 97.2 µM | – | > 100 µM | – | > 100 µM | – | > 100 µM | – | > 100 µM | – | > 100 µM | – | > 100 µM | – | > 100 µM |
| COc1ccc(C=O)cc1O[Si](C)(C)C(C)(C)C | – | > 100 µM | – | > 100 µM | – | > 100 µM | – | > 100 µM | – | > 100 µM | – | > 100 µM | – | > 100 µM | – | > 100 µM | – | > 100 µM | – | > 100 µM |
